Key:
NHE3 [1] = target: T1, NHE3 (Homo sapiens, UniProt P48764); assay: Cell-based assay of NHE-3 activity (pre-incubation inhibition), human; conditions: human Preincubation
T1 construct: expressed in transfected cells
T1 sequence (P48764 26-834): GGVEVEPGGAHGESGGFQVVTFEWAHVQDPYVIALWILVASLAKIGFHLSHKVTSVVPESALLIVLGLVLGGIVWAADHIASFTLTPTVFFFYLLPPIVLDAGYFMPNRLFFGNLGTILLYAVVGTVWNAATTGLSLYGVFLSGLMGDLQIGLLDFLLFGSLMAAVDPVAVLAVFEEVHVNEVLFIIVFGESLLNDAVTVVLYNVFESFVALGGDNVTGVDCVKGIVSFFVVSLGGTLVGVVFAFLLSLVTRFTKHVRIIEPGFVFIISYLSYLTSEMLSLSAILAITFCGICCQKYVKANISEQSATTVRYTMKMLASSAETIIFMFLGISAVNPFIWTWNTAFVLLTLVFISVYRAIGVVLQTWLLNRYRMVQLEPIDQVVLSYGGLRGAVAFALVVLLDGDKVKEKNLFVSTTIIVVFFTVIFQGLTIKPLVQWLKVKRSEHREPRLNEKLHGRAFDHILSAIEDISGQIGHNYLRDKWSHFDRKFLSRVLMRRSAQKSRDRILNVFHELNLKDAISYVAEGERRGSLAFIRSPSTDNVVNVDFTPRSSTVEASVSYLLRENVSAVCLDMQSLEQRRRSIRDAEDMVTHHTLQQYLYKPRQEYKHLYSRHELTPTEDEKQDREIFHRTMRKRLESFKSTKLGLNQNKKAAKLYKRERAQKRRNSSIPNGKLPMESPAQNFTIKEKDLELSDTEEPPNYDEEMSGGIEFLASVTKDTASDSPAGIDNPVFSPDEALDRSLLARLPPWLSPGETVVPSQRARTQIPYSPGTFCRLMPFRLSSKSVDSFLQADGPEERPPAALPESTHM
T1 sequence (Q99653 2-195 partner limits assumed): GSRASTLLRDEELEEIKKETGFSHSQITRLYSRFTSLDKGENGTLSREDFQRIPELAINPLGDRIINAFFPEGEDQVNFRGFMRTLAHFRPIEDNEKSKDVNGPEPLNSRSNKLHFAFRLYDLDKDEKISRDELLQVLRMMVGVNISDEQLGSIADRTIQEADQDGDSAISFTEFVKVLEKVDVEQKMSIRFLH
Experimental: Rat and human NHE-3-mediated Na^+-dependent H^+ antiport was measured using a modification of the pH sensitive dye method originally reported by Paradiso (Proc. Natl. Acad. Sci. USA. (1984) 81(23): 7436-7440). PS120 fibroblasts stably expressing human NHE3 and NHERF2 were obtained from Mark Donowitz (Baltimore, Md.). Opossum kidney (OK) cells were obtained from the ATCC and propagated per their instructions. The rat NHE-3 gene (GenBank M85300) was introduced into OK cells via electroporation, and cells were seeded into 96 well plates and grown overnight. Medium was aspirated from the wells then incubated for 30 min at 37° C. with NH4Cl-HEPES buffer (20 mM NH4Cl, 80 mM NaCl, 50 mM HEPES, 5 mM KCl, 2 mM CaCl2, 1 mM MgCl2, pH 7.4) containing 5 μM BCECF-AM. Cells were washed once with Ammonium free, Na^+-free HEPES (100 mM choline, 50 mM HEPES, 10 mM glucose, 5 mM KCl, 2 mM CaCl2, 1 mM MgCl2, pH 7.4) and incubated in the same buffer for 10 minutes at room temperature to lower intracellular pH with 0-30 μM test compound. […] Changes in intracellular pH were monitored using a FLIPR Tetra® (Molecular Devices, Sunnyvale, Calif.) by excitation at λex 439 to 505 nm, and measuring BCECF fluorescence at λem 538 nm. The initial rate of the fluorescence ratio change was used as a measure of NHE-mediated Na^+/H^+ activity, and reported as the change in fluorescence ratio per minute.

NHE3 [2] = target: T1, NHE3; assay: Cell-based assay of NHE-3 activity (persistent inhibition), human; conditions: human Persistence, 60 min incubation then washout
Experimental: The ability of compounds to inhibit human and rat NHE-3-mediated Na^+ dependent H^+ antiport after application and washout was measured using a modification of the pH sensitive dye method described above. PS120 fibroblasts stably expressing human NHE3 and NHERF2 were obtained from Mark Donowitz (Baltimore, Md.). Opossum kidney (OK) cells were obtained from the ATCC and propagated per their instructions. The rat NHE-3 gene was introduced into OK cells via electroporation, and cells were seeded into 96 well plates and grown overnight. Medium was aspirated from the wells, cells were washed once with NaCl-HEPES buffer (100 mM NaCl, 50 mM HEPES, 10 mM glucose, 5 mM KCl, 2 mM CaCl2, 1 mM MgCl2, pH 7.4), then overlayed with NaCl-HEPES buffer containing 0-30 μM test compound. After a 60 min incubation at room temperature, the test drug containing buffer was aspirated from the cells. Following aspiration, cells were washed once with NaCl-HEPES buffer without drug, then incubated for 30 min at 37° C. with NH4Cl-HEPES buffer (20 mM NH4Cl, 80 mM NaCl, 50 mM HEPES, 5 mM KCl, 2 mM CaCl2, 1 mM MgCl2, pH 7.4) containing 5 μM BCECF-AM. Cells were washed once with Ammonium free, Na^+-free HEPES (100 mM choline, 50 mM HEPES, 10 mM glucose, 5 mM KCl, 2 mM CaCl2, 1 mM MgCl2, pH 7.4) and incubated in the same buffer for 10 minutes at room temperature to lower intracellular pH. NHE-3-mediated recovery of neutral intracellular pH was initiated (10 min after compound washout) by addition of Na-HEPES buffer. […] Changes in intracellular pH were monitored using a FLIPR Tetra® (Molecular Devices, Sunnyvale, Calif.) by excitation at λex 439 to 505 nm, and measuring BCECF fluorescence at λem 538 nm. The initial rate of the fluorescence ratio change was used as a measure of NHE-mediated Na^+/H^+ activity, and reported as the change in fluorescence ratio per minute.

Compound	% inhibition (NHE3 [1])	pIC50 (NHE3 [1]; 0-30 μM test compound)	% inhibition (NHE3 [2])	IC50 (NHE3 [2])	pIC50 (NHE3 [2])	IC50 (NHE3 [1]; 0-30 μM test compound)
COc1cc(Cl)cc2c1C[C@H](N1CCC[C@@H](N)C1)[C@H]2Oc1ccc(S(=O)(=O)NCCOCCOCCNC(=O)NCCCCNC(=O)NCCOCCOCCNS(=O)(=O)c2ccc(O[C@H]3c4cc(Cl)cc(OC)c4C[C@@H]3N3CCC[C@@H](N)C3)c(C)c2)cc1C [Example 9, 3-[2-(2-[2-[(4-[[(1S,2S)-2-[(3R)-3-Aminopiperidin-1-yl]-6-chloro-4-methoxy-2,3-dihydro-1H-inden-1-yl]oxy]-3-methylbenzene)sulfonamido]ethoxy]ethoxy)ethyl]-1-[4-([[2-(2-[2-[(4-[[(1S,2S)-2-[(3R)-3-aminopiperidin-1-yl]-6-chloro-4-methoxy-2,3-dihydro-1H-inden-1-yl]oxy]-3-methylbenzene)sulfonamido]ethoxy]ethoxy)ethyl]carbamoyl]amino)butyl]urea bis(trifluoroacetic acid)]	A (NHE3 < 40%)	C (NHE3 pIC50 > 7)	B (40-70%)	100 to 1000 nM	–	–
Cc1cc(Cl)cc2c1C[C@H](N1CCC[C@@H](N)C1)[C@H]2Oc1ccc(S(=O)(=O)NCCOCCOCCNC(=O)NCCCCNC(=O)NCCOCCOCCNS(=O)(=O)c2ccc(O[C@H]3c4cc(Cl)cc(C)c4C[C@@H]3N3CCC[C@@H](N)C3)c(F)c2)cc1F [Example 10, 3-[2-(2-[2-[(4-[[(1S,2S)-2-[(3R)-3-Aminopiperidin-1-yl]-6-chloro-4-methyl-2,3-dihydro-1H-inden-1-yl]oxy]-3-fluorobenzene)sulfonamido]ethoxy]ethoxy)ethyl]-1-[4-[[(2-(2-[2-[(4-[[(1S,2S)-2-[(3R)-3-aminopiperidin-1-yl]-6-chloro-4-methyl-2,3-dihydro-1H-inden-1-yl]oxy]-3-fluorobenzene)sulfonamido]ethoxy]ethoxy)ethyl]carbamoyl]amino)butyl]urea; bis(trifluoroacetic acid)]	B (40-70%)	–	C (>70%)	–	–	–
Cc1cc(Cl)cc2c1C[C@H](N(C)C)[C@H]2Oc1ccc(S(=O)(=O)NCCOCCOCCNC(=O)NCCCCNC(=O)NCCOCCOCCNS(=O)(=O)c2ccc(O[C@H]3c4cc(Cl)cc(C)c4C[C@@H]3N(C)C)cc2)cc1 [Example 11]	C (>70%)	C (NHE3 pIC50 > 7)	C (>70%)	–	C (NHE3 pIC50 > 7)	–
CN(C)[C@H]1Cc2c(C#N)cc(Cl)cc2[C@@H]1Oc1ccc(S(=O)(=O)NCCOCCOCCNC(=O)NCCCCNC(=O)NCCOCCOCCNS(=O)(=O)c2ccc(O[C@H]3c4cc(Cl)cc(C#N)c4C[C@@H]3N(C)C)cc2)cc1 [Example 12, 3-[2-(2-[2-[(4-[[(1S,2S)-6-Chloro-4-cyano-2-(dimethylamino)-2,3-dihydro-1H-inden-1-yl]oxy]benzene)sulfonamido]ethoxy]ethoxy)ethyl]-1-[4-([[2-(2-[2-[(4-[[(1S,2S)-6-chloro-4-cyano-2-(dimethylamino)-2,3-dihydro-1H-inden-1-yl]oxy]benzene)sulfonamido]ethoxy]ethoxy)ethyl]carbamoyl]amino)butyl]urea; bis(trifluoroacetic acid)]	A (NHE3 < 40%)	C (NHE3 pIC50 > 7)	B (40-70%)	100 to 1000 nM	–	–
CN(C)[C@H]1Cc2c(cc(Cl)cc2C(F)(F)F)[C@@H]1Oc1ccc(S(=O)(=O)NCCOCCOCCNC(=O)NCCCCNC(=O)NCCOCCOCCNS(=O)(=O)c2ccc(O[C@H]3c4cc(Cl)cc(C(F)(F)F)c4C[C@@H]3N(C)C)cc2)cc1 [Example 13, 3-[2-(2-[2-[(4-[[(1S,2S)-6-Chloro-2-(dimethylamino)-4-(trifluoromethyl)-2,3-dihydro-1H-inden-1-yl]oxy]benzene)sulfonamido]ethoxy]ethoxy)ethyl]-1-[4-([[2-(2-[2-[(4-[[(1S,2S)-6-chloro-2-(dimethylamino)-4-(trifluoromethyl)-2,3-dihydro-1H-inden-1-yl]oxy]benzene)sulfonamido]ethoxy]ethoxy)ethyl]carbamoyl]amino)butyl]urea]	A (NHE3 < 40%)	–	A (NHE3 < 40%)	–	–	–
CN(C)[C@H]1Cc2c(OC(F)(F)F)cc(Cl)cc2[C@@H]1Oc1ccc(S(=O)(=O)NCCOCCOCCNC(=O)NCCCCNC(=O)NCCOCCOCCNS(=O)(=O)c2ccc(O[C@H]3c4cc(Cl)cc(OC(F)(F)F)c4C[C@@H]3N(C)C)cc2)cc1 [Example 14, 1-[2-(2-[2-[(4-[[(1S,2S)-6-Chloro-2-(dimethylamino)-4-(trifluoromethoxy)-2,3-dihydro-1H-inden-1-yl]oxy]benzene)sulfonamido]ethoxy]ethoxy)ethyl]-3-[4-([[2-(2-[2-[(4-[[(1S,2S)-6-chloro-2-(dimethylamino)-4-(trifluoromethoxy)-2,3-dihydro-1H-inden-1-yl]oxy]benzene)sulfonamido]ethoxy]ethoxy)ethyl]carbamoyl]amino)butyl]urea]	B (40-70%)	–	A (NHE3 < 40%)	–	–	–
COc1cc(Cl)cc2c1C[C@H](N(C)C)[C@H]2Oc1ccc(S(=O)(=O)NCCOCCOCCNC(=O)NCCCCNC(=O)NCCOCCOCCNS(=O)(=O)c2ccc(O[C@H]3c4cc(Cl)cc(OC)c4C[C@@H]3N(C)C)cc2)cc1 [Example 15, 3-[2-(2-[2-[(4-[[(1S,2S)-6-Chloro-2-(dimethylamino)-4-methoxy-2,3-dihydro-1H-inden-1-yl]oxy]benzene)sulfonamido]ethoxy]ethoxy)ethyl]-1-[4-([[2-(2-[2-[(4-[[(1S,2S)-6-chloro-2-(dimethylamino)-4-methoxy-2,3-dihydro-1H-inden-1-yl]oxy]benzene)sulfonamido]ethoxy]ethoxy)ethyl]carbamoyl]amino)butyl]urea; bis(trifluoroacetic acid)]	C (>70%)	–	A (NHE3 < 40%)	–	A (NHE3 pIC50 < 6)	100 to 1000 nM
Cc1cc(S(=O)(=O)NCCOCCOCCNC(=O)NCCCCNC(=O)NCCOCCOCCNS(=O)(=O)c2ccc(O[C@H]3c4cc(Cl)cc(F)c4C[C@@H]3N(C)C)c(C)c2)ccc1O[C@H]1c2cc(Cl)cc(F)c2C[C@@H]1N(C)C [Example 16]	B (40-70%)	C (NHE3 pIC50 > 7)	B (40-70%)	–	C (NHE3 pIC50 > 7)	–
